{"source": "patent US20120164226A1", "about": "“Compositions and Methods for Improving Prognosis of a Human with Subarachnoid Hemorrhage” (priority 2007, published 2012)", "key": {"L-type calcium currents": {"system": "L-type calcium currents", "conditions": "cited from earlier work"}, "Na^+ currents": {"system": "Na^+ currents", "conditions": "cited from earlier work"}, "N-type calcium current": {"biological_target": "N-type calcium current (Homo sapiens, UniProt Q00975)", "sequence (Q00975 whole entry)": "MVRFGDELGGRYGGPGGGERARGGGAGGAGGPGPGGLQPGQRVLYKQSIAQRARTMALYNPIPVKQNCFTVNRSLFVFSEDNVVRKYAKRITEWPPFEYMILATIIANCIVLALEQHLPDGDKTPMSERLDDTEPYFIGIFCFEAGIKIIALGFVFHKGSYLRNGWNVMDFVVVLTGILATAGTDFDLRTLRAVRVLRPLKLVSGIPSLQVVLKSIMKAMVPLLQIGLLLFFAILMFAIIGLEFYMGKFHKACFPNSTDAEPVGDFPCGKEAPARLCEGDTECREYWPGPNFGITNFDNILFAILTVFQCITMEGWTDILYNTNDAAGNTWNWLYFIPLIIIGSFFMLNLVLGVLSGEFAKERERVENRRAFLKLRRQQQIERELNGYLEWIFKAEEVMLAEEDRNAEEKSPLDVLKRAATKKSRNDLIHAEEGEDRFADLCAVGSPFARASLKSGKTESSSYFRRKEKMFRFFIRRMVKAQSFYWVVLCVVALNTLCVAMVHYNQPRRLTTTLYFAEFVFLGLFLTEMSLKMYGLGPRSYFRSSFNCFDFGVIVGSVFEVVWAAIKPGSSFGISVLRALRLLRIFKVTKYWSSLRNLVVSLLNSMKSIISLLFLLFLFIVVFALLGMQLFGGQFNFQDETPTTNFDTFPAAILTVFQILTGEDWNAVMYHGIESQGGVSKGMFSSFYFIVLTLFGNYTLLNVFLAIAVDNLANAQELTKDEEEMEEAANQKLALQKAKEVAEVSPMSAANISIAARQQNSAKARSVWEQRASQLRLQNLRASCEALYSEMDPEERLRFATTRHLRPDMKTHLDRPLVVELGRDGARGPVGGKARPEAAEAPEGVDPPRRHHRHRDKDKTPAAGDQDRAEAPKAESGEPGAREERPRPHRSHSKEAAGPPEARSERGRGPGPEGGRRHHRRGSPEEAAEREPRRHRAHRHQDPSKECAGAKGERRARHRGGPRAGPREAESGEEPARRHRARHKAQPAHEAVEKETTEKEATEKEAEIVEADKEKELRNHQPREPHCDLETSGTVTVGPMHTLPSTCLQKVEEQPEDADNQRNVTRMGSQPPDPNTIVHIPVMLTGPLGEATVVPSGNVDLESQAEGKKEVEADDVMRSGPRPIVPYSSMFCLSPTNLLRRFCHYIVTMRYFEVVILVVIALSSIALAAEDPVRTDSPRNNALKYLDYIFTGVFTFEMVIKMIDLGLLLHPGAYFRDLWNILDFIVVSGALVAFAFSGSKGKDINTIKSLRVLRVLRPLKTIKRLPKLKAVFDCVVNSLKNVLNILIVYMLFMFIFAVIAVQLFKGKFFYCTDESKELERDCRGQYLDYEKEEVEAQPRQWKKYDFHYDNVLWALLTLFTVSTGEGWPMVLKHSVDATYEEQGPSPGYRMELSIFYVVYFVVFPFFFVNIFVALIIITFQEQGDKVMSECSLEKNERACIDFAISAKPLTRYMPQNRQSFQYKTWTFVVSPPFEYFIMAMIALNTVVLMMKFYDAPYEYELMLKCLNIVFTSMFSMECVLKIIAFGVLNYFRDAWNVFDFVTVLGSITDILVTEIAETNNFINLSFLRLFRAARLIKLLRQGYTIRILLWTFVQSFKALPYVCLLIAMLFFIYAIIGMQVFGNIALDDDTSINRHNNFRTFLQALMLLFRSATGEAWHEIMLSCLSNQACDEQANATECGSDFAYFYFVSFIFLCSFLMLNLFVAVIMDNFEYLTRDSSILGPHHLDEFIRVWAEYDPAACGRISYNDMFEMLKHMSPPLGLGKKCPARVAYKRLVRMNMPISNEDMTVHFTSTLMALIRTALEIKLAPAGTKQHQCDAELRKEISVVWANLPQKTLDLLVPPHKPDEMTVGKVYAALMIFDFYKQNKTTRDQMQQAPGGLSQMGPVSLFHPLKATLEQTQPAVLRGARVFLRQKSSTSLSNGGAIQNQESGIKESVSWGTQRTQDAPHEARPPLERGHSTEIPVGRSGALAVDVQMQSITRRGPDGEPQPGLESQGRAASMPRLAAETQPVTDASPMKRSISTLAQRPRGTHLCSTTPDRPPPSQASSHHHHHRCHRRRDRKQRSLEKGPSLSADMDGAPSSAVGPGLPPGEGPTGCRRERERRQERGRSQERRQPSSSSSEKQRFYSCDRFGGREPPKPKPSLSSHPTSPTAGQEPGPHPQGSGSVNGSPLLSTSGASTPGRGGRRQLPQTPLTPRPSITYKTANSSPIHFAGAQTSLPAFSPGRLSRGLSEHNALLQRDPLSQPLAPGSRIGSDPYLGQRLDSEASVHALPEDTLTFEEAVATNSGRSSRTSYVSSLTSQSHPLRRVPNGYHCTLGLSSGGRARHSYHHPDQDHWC", "conditions": "300 nM to 500 nM; cited from earlier work"}, "[1]": {"biological_target": "T1, R-type calcium current in the neurohypophysial nerve endings (Homo sapiens, UniProt Q15878)", "T1 construct": "R-type calcium current in the neurohypophysial nerve endings at 40 nM concentration; host or cells: neurohypophysial nerve endings", "conditions": "40 nM concentration; cited from earlier work"}, "K^+ currents": {"system": "K^+ currents", "conditions": "cited from earlier work"}, "[2]": {"biological_target": "P/Q-type calcium currents (Homo sapiens, UniProt O00555)", "sequence (O00555 whole entry)": "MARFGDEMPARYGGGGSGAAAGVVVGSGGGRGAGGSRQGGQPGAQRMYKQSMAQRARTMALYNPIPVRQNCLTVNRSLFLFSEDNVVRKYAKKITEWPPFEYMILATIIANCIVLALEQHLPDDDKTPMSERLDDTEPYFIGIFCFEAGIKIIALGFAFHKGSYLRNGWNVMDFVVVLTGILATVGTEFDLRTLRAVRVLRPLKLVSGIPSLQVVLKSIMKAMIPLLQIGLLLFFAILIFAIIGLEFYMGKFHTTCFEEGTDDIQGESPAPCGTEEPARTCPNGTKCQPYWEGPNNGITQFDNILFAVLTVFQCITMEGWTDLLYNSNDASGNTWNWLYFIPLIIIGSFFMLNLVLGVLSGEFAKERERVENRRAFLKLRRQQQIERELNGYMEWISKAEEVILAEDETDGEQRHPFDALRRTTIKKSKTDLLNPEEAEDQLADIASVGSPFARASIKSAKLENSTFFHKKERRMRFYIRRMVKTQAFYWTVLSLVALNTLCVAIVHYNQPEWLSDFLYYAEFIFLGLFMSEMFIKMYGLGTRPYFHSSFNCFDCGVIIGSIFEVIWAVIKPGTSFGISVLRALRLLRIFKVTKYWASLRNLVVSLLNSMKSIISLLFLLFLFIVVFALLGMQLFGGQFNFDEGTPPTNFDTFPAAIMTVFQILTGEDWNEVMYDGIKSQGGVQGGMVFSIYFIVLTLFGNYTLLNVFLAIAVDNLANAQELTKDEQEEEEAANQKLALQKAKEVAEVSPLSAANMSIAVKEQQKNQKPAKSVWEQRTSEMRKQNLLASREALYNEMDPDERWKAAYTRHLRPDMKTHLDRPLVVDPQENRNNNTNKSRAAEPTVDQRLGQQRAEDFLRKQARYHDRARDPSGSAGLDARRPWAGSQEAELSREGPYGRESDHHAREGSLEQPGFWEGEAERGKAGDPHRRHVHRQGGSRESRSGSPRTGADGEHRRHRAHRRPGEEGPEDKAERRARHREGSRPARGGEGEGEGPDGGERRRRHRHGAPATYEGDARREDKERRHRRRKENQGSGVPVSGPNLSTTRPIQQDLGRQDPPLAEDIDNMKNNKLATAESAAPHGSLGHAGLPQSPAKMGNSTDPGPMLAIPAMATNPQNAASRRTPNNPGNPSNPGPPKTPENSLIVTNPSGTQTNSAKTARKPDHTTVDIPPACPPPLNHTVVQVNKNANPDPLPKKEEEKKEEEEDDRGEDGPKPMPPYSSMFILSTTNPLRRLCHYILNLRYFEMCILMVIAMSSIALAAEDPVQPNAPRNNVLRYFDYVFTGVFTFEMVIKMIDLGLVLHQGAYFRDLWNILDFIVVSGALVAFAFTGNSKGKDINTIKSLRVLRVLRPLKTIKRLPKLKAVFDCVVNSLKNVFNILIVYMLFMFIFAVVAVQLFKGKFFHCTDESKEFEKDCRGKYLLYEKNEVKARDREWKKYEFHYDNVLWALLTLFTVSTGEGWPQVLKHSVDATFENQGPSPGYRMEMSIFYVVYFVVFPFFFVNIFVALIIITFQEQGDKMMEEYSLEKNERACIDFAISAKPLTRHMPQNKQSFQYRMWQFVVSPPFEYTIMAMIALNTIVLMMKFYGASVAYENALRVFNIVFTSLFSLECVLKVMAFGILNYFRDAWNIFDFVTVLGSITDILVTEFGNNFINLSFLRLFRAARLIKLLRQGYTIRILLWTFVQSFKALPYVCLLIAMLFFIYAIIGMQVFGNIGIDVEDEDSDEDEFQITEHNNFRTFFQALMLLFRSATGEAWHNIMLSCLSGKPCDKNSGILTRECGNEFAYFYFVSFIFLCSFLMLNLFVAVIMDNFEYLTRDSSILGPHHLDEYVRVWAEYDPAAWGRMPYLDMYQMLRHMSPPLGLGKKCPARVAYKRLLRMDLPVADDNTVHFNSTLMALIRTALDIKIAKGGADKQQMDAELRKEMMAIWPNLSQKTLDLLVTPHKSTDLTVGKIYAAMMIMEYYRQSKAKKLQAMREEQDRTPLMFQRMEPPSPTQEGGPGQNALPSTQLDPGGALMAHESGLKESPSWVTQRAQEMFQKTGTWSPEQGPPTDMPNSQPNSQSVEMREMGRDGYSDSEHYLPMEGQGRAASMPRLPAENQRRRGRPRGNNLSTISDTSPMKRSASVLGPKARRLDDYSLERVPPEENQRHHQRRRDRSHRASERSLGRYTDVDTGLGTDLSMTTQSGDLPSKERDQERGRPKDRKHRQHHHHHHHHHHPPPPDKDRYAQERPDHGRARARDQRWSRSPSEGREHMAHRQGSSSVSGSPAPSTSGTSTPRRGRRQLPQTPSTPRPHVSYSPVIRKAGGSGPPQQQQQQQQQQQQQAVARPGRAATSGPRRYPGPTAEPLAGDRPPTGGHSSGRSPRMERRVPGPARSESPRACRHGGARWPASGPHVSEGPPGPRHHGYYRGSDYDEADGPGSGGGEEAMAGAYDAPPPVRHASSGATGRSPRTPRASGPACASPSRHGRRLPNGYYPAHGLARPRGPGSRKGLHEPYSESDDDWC", "conditions": "cited from earlier work"}, "[3]": {"system": "R-type current in preparations of the neuronal cell body, retinal ganglion cells and hippocampal pyramidal cells", "conditions": "cited from earlier work"}, "T-type calcium currents": {"system": "T-type calcium currents", "conditions": "cited from earlier work"}, "[4]": {"system": "Subarachnoid Hemorrhage (SAH) Dog Model", "experiment": "Study 2: angiographic vasospasm (basilar artery diameter) in SAH dog model", "assay_type": "in vivo", "conditions": "oral nimodipine 0.86 mg/kg six times per day till day 21", "method": "The mixture was added to a surfactant containing aqueous solution to form an emulsion and the solvent extracted to produce the flowable microparticulate nimodipine formulation. […] The microparticulate nimodipine formulation is combined with a pharmaceutical carrier to form the pharmaceutical composition of the described invention. […] The placebo formulation contained the microparticles plus vehicle, but no nimodipine. […] (Data not shown). […] On Day 1, the dogs were weighed, baseline blood was collected and blood pressure, temperature, heart rate oxygen, and blood gases were monitored throughout the surgical procedure. Cerebral angiography was performed through one vertebral artery. Images were captured using identical exposure factors and magnification for every angiogram. An internal magnification standard was included in every angiogram. […] The needle was withdrawn immediately after the injection. […] The animal was then turned supine, the femoral catheter was removed, and the femoral artery was ligated. The incision was closed in a standard fashion. […] The angiographic data was independently analyzed by two reviewers who were blinded to the animal group. […] Individual percent vasospasm was determined for each animal for Days 8 and 15 using formula (I): Average percent vasospasm for Days 8 and 15 was also determined for each group. […]"}}}
{"compound": "SNX-482", "values": [{"measurement": "effect on L-type calcium currents", "setting": "L-type calcium currents", "result": "no effect"}, {"measurement": "effect on Na+ currents", "setting": "Na^+ currents", "result": "no effect"}, {"measurement": "N-type calcium current blocked", "setting": "N-type calcium current", "result": "30-50%"}, {"measurement": "block of R-type calcium current", "setting": "[1]", "result": "blocks"}, {"measurement": "effect on K+ currents", "setting": "K^+ currents", "result": "no effect"}, {"measurement": "effect on P/Q-type calcium currents", "setting": "[2]", "result": "no effect"}, {"measurement": "effect on R-type current", "setting": "[3]", "result": "no significant effect"}, {"measurement": "effect on T-type calcium currents", "setting": "T-type calcium currents", "result": "no effect"}]}
{"compound": "COCCOC(=O)C1=C(C)NC(C)=C(C(=O)OC(C)C)C1c1cccc([N+](=O)[O-])c1", "note": "(stereo not shown) [Control, nimodipine]", "values": [{"measurement": "percent vasospasm (% change in mean basilar artery diameter from baseline), Mean", "setting": "[4]; Day 8", "result": "−27.89", "unit": "%"}, {"measurement": "percent vasospasm (% change in mean basilar artery diameter from baseline), Mean", "setting": "[4]; Day 15", "result": "−11.67", "unit": "%"}]}
